Experimental data as given in patent publication US9957249B2, “Saturated nitrogen and N-acylated heterocycles potentiating the activity of an active antibiotic against Mycobacteria” (Universite de Droit et de la Sante de Lille 2, priority 2012, dated 2018).

What was measured:
M. tuberculosis = assay: Potentiation of ethionamide cell test (High Content Screening); type: cell-based; details: ligand concentration necessary to potentiate ten times the activity of ethionamide, constant ethionamide 0.1 μg/mL (1/10 of its CMI99), 50% inhibition of bacterial growth
Description: Potentiation of Ethionamide Cell Test
The test used made it possible to ascertain that these compounds were capable of potentiating the bactericide activity of ethionamide on M. tuberculosis alone. This test was a “High Content Screening” (HCS) or dense content screening test. HCS tests were performed on cell cultures that enable certain phenotypic features of a microorganism (e.g. a bacterium) in a given environment to be studied. The phenotypic changes observed can range from the increase (or decrease) of the production of certain marked proteins to the modification of the morphology of the microorganism under consideration. The method is described in the following publication: “Ethionamide Boosters: Synthesis, Biological Activity, and Structure-Activity Relationships of a Series of 1,2,4-Oxadiazole EthR Inhibitors”, M. Flipo et al., Journal of Medicinal Chemistry, 2011, 54(8), 2994-3010.
This test aims to determine the ligand concentration necessary to potentiate ten times the activity of ethionamide (ETH).
To measure the ligand concentration necessary for potentiating ten times the activity of ETH, a constant concentration of ethionamide (0.1 μg/mL corresponding to 1/10 of its CMI99) was chosen. By varying the ligand concentration, the concentration necessary to inhibit 50% of the bacterial growth, i.e. the concentration necessary to potentiate ten times the activity of ethionamide, was determined. This concentration was denoted EC50.

[1] = Measurement of the solubility; type: physicochemical; details: aqueous buffer, kinetic from dmso stock; PBS at pH 7.4, 24 h at RT, LC-MS, ratio of mass signals PBS/MeOH
Description: Measurement of the Solubility
40 μL of a solution at 10 mM in DMSO of the sample was added to 1.96 mL MeOH or PBS at pH 7.4. The samples were then agitated during 24 h at RT, centrifuged during 5 min and then filtrated on filters of 0.45 μm size. 20 μL of each solution were then added to 180 μL MeOH and then analyzed by LC-MS. The solubility was determined as ratio of the surfaces of the mass signals PBS/MeOH.

| Structure (SMILES) | EC50 (M. tuberculosis; Table III) [µM] | further results |
| --- | --- | --- |
| O=C(CCC(F)(F)F)N1CCC(c2ccccc2)CC1 [BDM_44647] | 0.0008 | EC50 (M. tuberculosis; Table I): 0.0008 µM; solubility at 24 h [1]: 0.0504 mg/mL |
| O=C(CCCC(F)(F)F)N1CCC(c2ccccc2)CC1 [BDM_44648] | < 0.01 | EC50 (M. tuberculosis; Table I): < 0.01 µM; solubility at 24 h [1]: 0.0429 mg/mL |
| CC(C)CCC(=O)N1CCC(c2ccccc2)CC1 [BDM_44649] | 0.06 | EC50 (M. tuberculosis; Table II): 0.06 µM |
| O=C(CCC(F)(F)F)N1CCC(c2ccc(F)cc2)CC1 [BDM_44751] | 0.001 | EC50 (M. tuberculosis; Table I): 0.001 µM; solubility at 24 h [1]: 0.0519 mg/mL |
| O=C(CCC(F)(F)F)N1CCN(c2ccccc2)CC1 [BDM_44808] | 0.01 |  |
| O=C(CCCC(F)(F)F)N1CCN(c2ccccc2)CC1 [BDM_44809] | 0.07 |  |
| CC(C)CCC(=O)N1CCN(c2ccccc2)CC1 [BDM_44810] | 0.06 | EC50 (M. tuberculosis; Table II): 0.06 µM |
| O=C(CCC(F)(F)F)N1CCN(c2ccc(Cl)cc2)CC1 [BDM_44811] | 0.01 |  |
| O=C(CCCC(F)(F)F)N1CCN(c2ccc(Cl)cc2)CC1 [BDM_44812] | < 0.02 |  |
| CC(C)CCC(=O)N1CCN(c2ccc(Cl)cc2)CC1 [BDM_44813] | 0.1 | EC50 (M. tuberculosis; Table II): 0.1 µM |
| O=C(CCC(F)(F)F)N1CCN(c2ccc(F)cc2)CC1 [BDM_44819] | 0.027 |  |
| O=C(CCCC(F)(F)F)N1CCN(c2ccc(F)cc2)CC1 [BDM_44820] | 0.14 |  |
| CC(C)CCC(=O)N1CCN(c2ccc(F)cc2)CC1 [BDM_44821] | 0.1 | EC50 (M. tuberculosis; Table II): 0.1 µM |
| O=C(CCC(F)(F)F)N1CCC(c2ccc(O)cc2)CC1 [BDM_45572] | 0.28 |  |
| O=C(CCC(F)(F)F)N1CCC(c2cccc(F)c2)CC1 [BDM_70531] | 0.0008 |  |
| O=C(CCC(F)(F)F)N1CCC(c2ccccc2Cl)CC1 [BDM_70534] | 0.11 |  |
| O=C(CCC(F)(F)F)N1CCC(c2ccc(Cl)cc2)CC1 [BDM_70535] | 0.12 |  |
| O=C(CCC(F)(F)F)N1CCC(c2ccccc2C(F)(F)F)CC1 [BDM_70536] | 0.77 |  |

| Structure (SMILES) | EC50 (M. tuberculosis; Table III) [µM] | further results |
| --- | --- | --- |
| COc1ccc(C2CCN(C(=O)CCC(F)(F)F)CC2)cc1 [BDM_70537] | 0.002 |  |
| COc1cccc(C2CCN(C(=O)CCC(F)(F)F)CC2)c1 [BDM_70538] | 0.14 |  |
| COc1ccccc1C1CCN(C(=O)CCC(F)(F)F)CC1 [BDM_70540] | 0.14 |  |
| O=C(CCC(F)(F)F)N1CCC(c2ccncc2)CC1 [BDM_70542] | 0.33 |  |
| O=C(CCC(F)(F)F)N1CCC(c2cccc(C(F)(F)F)c2)CC1 [BDM_70546] | 0.001 |  |
| Cc1ccc(C2CCN(C(=O)CCC(F)(F)F)CC2)cc1 [BDM_70663] | 0.026 |  |
| Cc1cccc(C2CCN(C(=O)CCC(F)(F)F)CC2)c1 [BDM_70664] | 0.001 |  |
| Cc1ccccc1C1CCN(C(=O)CCC(F)(F)F)CC1 [BDM_70665] | 0.035 |  |
| O=C(CCC(F)(F)F)N1CCC(c2ccccc2F)CC1 [BDM_70666] | 0.001 |  |
| O=C(CCC(F)(F)F)N1CCC(c2ccc(C(F)(F)F)cc2)CC1 [BDM_70667] | 0.3 |  |
| O=C(CCC(F)(F)F)N1CCC(c2cccc(Cl)c2)CC1 [BDM_70668] | 0.0005 |  |
| O=C(CCC(F)(F)F)N1CCN(c2ccc(F)cc2F)CC1 [BDM_70669] | 0.021 |  |
| O=C(CCC(F)(F)F)N1CCC(Cc2ccccc2)CC1 [BDM_70670] | 0.054 |  |
| O=C(CCC(F)(F)F)N1CCC(c2ccc(Cl)c(Cl)c2)CC1 [BDM_70716] | 0.025 |  |
| O=C(CCC(F)(F)F)N1CCC(c2ccc(F)cc2)C1 (stereo not shown) [BDM_70717] | 0.009 | EC50 (M. tuberculosis; Table I): 0.009 µM |
| O=C(CCC(F)(F)F)N1CCN(Cc2ccccc2)CC1 [BDM_70719] | 1.1 |  |
| O=C(CCC(F)(F)F)N1CCC(c2c(F)cc(F)cc2F)CC1 [BDM_71148] | 0.001 |  |
